This note sets out measurements from patent US8236819B2, “Dihydro-[1H]-quinolin-2-one derivatives as RXR agonists for the treatment of dyslipidemia, hypercholesterolemia and diabetes” (Janssen Pharmaceutica N.V., priority 2005, dated 2012).

Data set [1] concerns ABCA1 mRNA in THP-1 cells. Briefly: ABCA1 bDNA assay (ABCA1 mRNA induction). The following applies: for EC50 / Emax: Homo sapiens; for EC50: THP-1, THP-1 cells, ABCA1 mRNA induction; for ABCA1 (% max MX-6054) @3 μM / Emax / ABCA1 (% max MX-6054) @0.3 μM: THP-1 cells, relative to max of MX-6054; for Emax: concentration not given. The format is cell-based, human. The protocol: THP-1 cells, a human monocytic cell line, were obtained from ATCC and maintained in RPMI (Gibco) supplemented with 10% fetal bovine serum (Gibco), 2 mM L-glutamine and 1% antibiotic-antimycotic in 5% CO2 at 37° C. For ABCA1 mRNA induction assays, the cells were pelleted and resuspended in RPMI supplemented with 0.5% charcoal treated serum (Hyclone), 2 mM glutamine and 1% antibiotic-antimycotic. The cells were plated at a density of 40,000 cells/90 µl and incubated as above for at least 4 hours before the initiation of treatments. Compounds were prepared as 10 mM stocks in DMSO. For treatments, the compounds were diluted in medium and 10 µl of 10× stocks were added to the cells at a final concentration 0.1% DMSO. The cells were incubated for the desired amount of time (usually 18-24 hrs) and then lyzed with 50 µl of Quantigene HV bDNA lysis buffer which also contained the ABCA1 bDNA probes (probe sequences shown below): […]

The target in the next data set is T1, RXR (Homo sapiens, UniProt P19793).
T1 construct: expressed in transfected cells; host or cells: HEK293
T1 sequence (P19793 227-458 limits assumed): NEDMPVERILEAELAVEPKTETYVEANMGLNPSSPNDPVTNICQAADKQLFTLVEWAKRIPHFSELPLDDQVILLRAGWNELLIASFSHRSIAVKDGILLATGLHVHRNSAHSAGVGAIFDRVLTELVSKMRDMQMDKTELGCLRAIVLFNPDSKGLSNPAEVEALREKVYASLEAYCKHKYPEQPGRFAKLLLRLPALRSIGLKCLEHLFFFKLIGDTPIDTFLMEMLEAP
Briefly: RXR co-transfection assay (GAL4 fusion, luciferase reporter, HEK293 cells). The format is cell-based. The following applies: for RXR co-transfection (% of 2,4-thiazolidinedione, 5-[[3-(1-ethyl-1,2,3,4-tetrahydro-4,4,6-trimethyl-2-oxo-7-quinolinyl)-4-(trifluoro-methoxy)phenyl]methylene]-, (5Z)-): relative to the reference thiazolidinedione. Here is the method:
The nucleic acid sequence from 676-1464 bp (accession number X52773) encoding the ligand binding domains was subcloned into the pM vector (BD Biosciences Clontech, Palo Alto, Calif.) and were fused with the DNA binding domain of yeast GAL4. HEK293 cells were cultured in DMEM/F12 medium supplemented with 10% FBS and 1% I-glutamine (growth medium). Cells were seeded at a density of 5-10×10^6 cells in 50 ml of growth medium and left overnight. The medium was removed and the cells were washed with 15 ml of OptiMEM serum free medium (Invitrogen Corp). The cells were transfected using OptiMEM serum free medium and DMRIE transfection reagent (Invitrogen Corp). Approximately 10-30 ng of DNA for the different receptors and 5-10 ng of the luciferase reporter (1:1 ratio for RAR and 4:1 ratio for RXR of receptor DNA:reporter DNA) were gently mixed with 51 µl of DMRIE reagent in a total volume of 17 ml of OptiMEM medium. Eighteen hours after transfection, the cells were washed once with growth medium and then incubated for 6 hrs in 30 ml of growth medium. The cells were then trypsinized, and reseeded at a density of 50,000 per well in 96 well plates and left overnight. The medium was replaced with 90 µl of medium containing DMEM/F12 supplemented with 0.5% charcoal-treated FBS (HyClone; Logan, Utah) and 1% glutamine. Compounds or vehicle were added in 10 µl of 10× concentration of compound or vehicle (0.1% dimethyl sulfoxide). The cells were treated for 16-18 hours, lysed and assayed for luciferase activity using the Steady Glo luciferase assay kit (Promega, Madison, Wis.).
For orientation: A reporter such as luciferase makes a cellular process visible.

Molecules are shown by their SMILES. Where “and” joins values, the source holds several entries; their conditions need not be identical. Identical values can stand only once. Some results are limits rather than exact numbers.

In the case of `Cc1cc2c(cc1-c1cc([C@@H]3C[C@H]3C(=O)O)ccc1OC(F)(F)F)N(C)C(=O)CC2(C)C` (racemic) [Compound 42, (□)-2-[3-(1,4,4,6-Tetramethyl-2-oxo-1,2,3,4-tetrahydro-quinolin-7-yl)-4-trifluoromethoxy-phenyl]-cyclopropanecarboxylic acid], in data set [1], the EC50 – broadly, the concentration needed to bring the measured effect to its halfway point – was > 1400 nM and the “ABCA1 (% max MX-6054) @3 μM” value was “(38% @3 μM)”. Besides, on RXR, the response was half-maximal at 144 nM (EC50) and the “RXR co-transfection (% of 2,4-thiazolidinedione, 5-[[3-(1-ethyl-1,2,3,4-tetrahydro-4,4,6-trimethyl-2-oxo-7-quinolinyl)-4-(trifluoro-methoxy)phenyl]methylene]-, (5Z)-)” value was “(108%)”.

Regarding `Cc1cc2c(cc1-c1cc(CCC(=O)O)ccc1OCC(F)(F)F)N(C(C)C)C(=O)CC2(C)C` [Compound 31, 3-[3-(1-Isopropyl-4,4,6-trimethyl-2-oxo-1,2,3,4-tetrahydro-quinolin-7-yl)-4-(2,2,2-trifluoro-ethoxy)-phenyl]-propionic acid], in data set [1], the EC50 came out at 369 nM and the Emax (commonly the maximal effect, on the per cent scale that the assay sets) stood at 45%. The EC50 at RXR is 59.6 nM and 12.6 nM and 37.2 nM.

As for `Cc1cc2c(cc1-c1cc([C@@H]3C[C@H]3C(=O)O)ccc1OC(F)(F)F)N(C(C)C)C(=O)CC2(C)C` (racemic) [Compound 43, (□)-2-[3-(1-Isopropyl-4,4,6-trimethyl-2-oxo-1,2,3,4-tetrahydro-quinolin-7-yl)-4-trifluoromethoxy-phenyl]-cyclopropanecarboxylic acid], in data set [1], the EC50 was > 1000 nM and the “ABCA1 (% max MX-6054) @3 μM” value is “(56% @3 μM)”. Moreover, the EC50 at RXR was 2.9 nM and 7.1 nM.

Take `CCN1C(=O)CC(C)(C)c2cc(C)c(-c3cc(/C=C(\C)C(=O)O)ccc3OC(F)(F)F)cc21` [Compound 9, 3-[3-(1-Ethyl-4,4,6-trimethyl-2-oxo-1,2,3,4-tetrahydro-quinolin-7-yl)-4-trifluoromethoxy-phenyl]-2-methyl-acrylic acid]: in data set [1], the EC50 was 100 nM and the “ABCA1 (% max MX-6054) @0.3 μM” value was “(39.9% @0.3 μM)”. For the same compound, the EC50 on RXR is 31.7 nM and 24.2 nM.

Take `COc1ccc(/C=C/C(=O)O)cc1-c1cc2c(cc1C)C(C)(C)CC(=O)N2C(C)C` [Compound 12, 3-[3-(1-isopropyl-4,4,6-trimethyl-2-oxo-1,2,3,4-tetrahydro-quinolin-7-yl)-4-methoxy-phenyl]-acrylic acid]: in data set [1], the EC50 worked out at 510 nM and the Emax was found to be 59%. At RXR, the EC50 is 71.2 nM and 62.7 nM and 36.7 nM; the “RXR co-transfection (% of 2,4-thiazolidinedione, 5-[[3-(1-ethyl-1,2,3,4-tetrahydro-4,4,6-trimethyl-2-oxo-7-quinolinyl)-4-(trifluoro-methoxy)phenyl]methylene]-, (5Z)-)” value is “(85%)”.

For `COc1ccc([C@@H]2C[C@H]2C(=O)O)cc1-c1cc2c(cc1C)C(C)(C)CC(=O)N2C(C)C` (racemic) [Compound 44, (□)-2-[3-(1-Isopropyl-4,4,6-trimethyl-2-oxo-1,2,3,4-tetrahydro-quinolin-7-yl)-4-methoxy-phenyl]-cyclopropanecarboxylic acid], the EC50 in data set [1] is 1520 nM; on RXR it was 251 nM and 164 nM. For the same compound, in data set [1], the Emax is 29%.

In turn, `Cc1cc2c(cc1-c1cc(/C=C/C(=O)O)ccc1OCC(F)(F)F)N(C(C)C)C(=O)CC2(C)C` [Compound 11, 3-[3-(1-Isopropyl-4,4,6-trimethyl-2-oxo-1,2,3,4-tetrahydro-quinolin-7-yl)-4-(2,2,2-trifluoro-ethoxy)-phenyl]-acrylic acid] had an EC50 in data set [1] of 44 nM. Further, at RXR, the EC50 is 23.1 nM and the “RXR co-transfection (% of 2,4-thiazolidinedione, 5-[[3-(1-ethyl-1,2,3,4-tetrahydro-4,4,6-trimethyl-2-oxo-7-quinolinyl)-4-(trifluoro-methoxy)phenyl]methylene]-, (5Z)-)” value is “(64%)”.

`CCN1C(=O)CC(C)(C)c2cc(C)c(-c3cc(/C=C/C(=O)O)ccc3OCC(F)(F)F)cc21` [Compound 1, 3-[3-(1-Ethyl-4,4,6-trimethyl-2-oxo-1,2,3,4-tetrahydro-quinolin-7-yl)-4-(2,2,2-trifluoro-ethoxy)-phenyl]-acrylic acid]: the melting point – broadly, the temperature, or range, at which the solid turns liquid – was 237 to 241 °C. The compound also registered a maximal effect (Emax) in data set [1] of 60%. Further, at RXR, the 50% effective concentration (EC50) is 57.2 nM and 72.3 nM and 72.4 nM.

In data set [1], `Cc1cc2c(cc1-c1cc(CCC(=O)O)ccc1OC(F)(F)F)N(C(C)C)C(=O)CC2(C)C` [Compound 28, 3-[3-(1-Isopropyl-4,4,6-trimethyl-2-oxo-1,2,3,4-tetrahydro-quinolin-7-yl)-4-trifluoromethoxy-phenyl]-propionic acid] registered an EC50 of 1 nM and an Emax of 59%. Moreover, on RXR, a half-maximal effect (EC50) was put at 3.4 nM and the “RXR co-transfection (% of 2,4-thiazolidinedione, 5-[[3-(1-ethyl-1,2,3,4-tetrahydro-4,4,6-trimethyl-2-oxo-7-quinolinyl)-4-(trifluoro-methoxy)phenyl]methylene]-, (5Z)-)” value is listed as “(80%)”.

In data set [1], `CCN1C(=O)CC(C)(C)c2cc(C)c(-c3cc(/C=C\C(=O)O)ccc3OC(F)(F)F)cc21` [Compound 58, 3-[3-(1-Ethyl-4,4,6-trimethyl-2-oxo-1,2,3,4-tetrahydro-quinolin-7-yl)-4-trifluoromethoxy-phenyl]-acrylic acid] came in with a 50% effective concentration (EC50) of 886 nM and a maximal response (Emax) of 75%. Also, at RXR, the EC50 was ~50.9 nM and 27.2 nM.

On to `Cc1cc2c(cc1-c1cc(/C=C/C(=O)O)ccc1OC(F)(F)F)N(C)C(=O)CC2(C)C` [Compound 3, 3-[3-(1,4,4,6-Tetramethyl-2-oxo-1,2,3,4-tetrahydro-quinolin-7-yl)-4-trifluoromethoxy-phenyl]-acrylic acid], for which the EC50 in data set [1] was 200 nM; on RXR it was 12.8 nM and 35.8 nM. In addition, the “ABCA1 (% max MX-6054) @3 μM” value in data set [1] is recorded as “(56% @3 μM)”.

In data set [1], `CCN1C(=O)CC(C)(C)c2cc(C)c(-c3cc(C(C)CC(=O)O)ccc3OC(F)(F)F)cc21` (stereo not shown) [Compound 30, 3-[3-(1-Ethyl-4,4,6-trimethyl-2-oxo-1,2,3,4-tetrahydro-quinolin-7-yl)-4-trifluoromethoxy-phenyl]-butyric acid] gave an EC50 of 347 nM and an Emax of 160%. Moreover, the EC50 at RXR is 46.3 nM and 29.1 nM.

In data set [1], `CCN1C(=O)CC(C)(C)c2cc(C)c(-c3cc(CCC(=O)O)ccc3OC(F)(F)F)cc21` [Compound 26, 3-[3-(1-Ethyl-4,4,6-trimethyl-2-oxo-1,2,3,4-tetrahydro-quinolin-7-yl)-4-trifluoromethoxy-phenyl]-propionic acid] displayed an EC50 of 47 nM and an Emax of 56.8%. At RXR, the EC50 was 7.1 nM and 7.3 nM.

Consider `CCN1C(=O)CC(C)(C)c2cc(C)c(-c3cc(/C=C/C(=O)O)ccc3OC(F)(F)F)cc21` [Compound 2, 3-[3-(1-Ethyl-4,4,6-trimethyl-2-oxo-1,2,3,4-tetrahydro-quinolin-7-yl)-4-trifluoromethoxy-phenyl]-acrylic acid], for which the EC50 in data set [1] is ~3.6 nM; on RXR, 1 nM and 2.5 nM. Moreover, the Emax in data set [1] amounted to 81%.

For the compound `Cc1cc2c(cc1-c1cc(/C=C/C(=O)O)ccc1OC(F)(F)F)N(C(C)C)C(=O)CC2(C)C` [Compound 4, 3-[3-(1-Isopropyl-4,4,6-trimethyl-2-oxo-1,2,3,4-tetrahydro-quinolin-7-yl)-4-trifluoromethoxy-phenyl]-acrylic acid], in data set [1], a half-maximal effect (EC50) was put at 10 nM and the “ABCA1 (% max MX-6054) @0.3 μM” value is “(70.3% @0.3 μM)”. Further, on RXR, it took 16.3 nM to reach a half-maximal effect (EC50) and the “RXR co-transfection (% of 2,4-thiazolidinedione, 5-[[3-(1-ethyl-1,2,3,4-tetrahydro-4,4,6-trimethyl-2-oxo-7-quinolinyl)-4-(trifluoro-methoxy)phenyl]methylene]-, (5Z)-)” value is given as “(97%)”.
